From ChEMBL document CHEMBL5653631, “A Potent and Selective ULK1 Inhibitor Suppresses Autophagy and Sensitizes Cancer Cells to Nutrient Stress” (iScience, 2018)
Values belong to the molecule of their own block, whether it stands above or below them.

Tests used:
[1] = biological target: T1, TGF-beta receptor type-1 (Homo sapiens) (UniProt P36897); experiment: Inhibition of human recombinant TGFbR1 at 500 nM in presence of ATP by radiometric assay relative to control
T1 sequence (whole entry): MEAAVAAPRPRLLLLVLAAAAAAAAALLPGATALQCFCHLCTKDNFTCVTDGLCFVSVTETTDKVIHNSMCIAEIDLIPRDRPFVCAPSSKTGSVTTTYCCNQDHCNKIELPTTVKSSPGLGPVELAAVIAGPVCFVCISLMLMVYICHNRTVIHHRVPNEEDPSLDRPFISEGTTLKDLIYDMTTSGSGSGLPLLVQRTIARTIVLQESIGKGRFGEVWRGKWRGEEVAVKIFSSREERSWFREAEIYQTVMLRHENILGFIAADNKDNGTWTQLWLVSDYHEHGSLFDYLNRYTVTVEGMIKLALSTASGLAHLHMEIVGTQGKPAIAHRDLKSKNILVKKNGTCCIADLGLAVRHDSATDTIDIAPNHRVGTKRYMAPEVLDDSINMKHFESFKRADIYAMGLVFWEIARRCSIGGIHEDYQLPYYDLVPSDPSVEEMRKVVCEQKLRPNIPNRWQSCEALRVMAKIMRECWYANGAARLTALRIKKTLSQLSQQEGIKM

[2] = biological target: Ephrin type-A receptor 7 (Homo sapiens) (UniProt Q15375); experiment: Inhibition of human recombinant EphA7 at 500 nM related to control ULK1
[3] = biological target: Serine/threonine-protein kinase pim-3 (Homo sapiens) (UniProt Q86V86); experiment: Inhibition of human recombinant PIM3 at 500 nM related to control ULK1
[4] = biological target: Myosin light chain kinase, smooth muscle (Homo sapiens) (UniProt Q15746); experiment: Inhibition of human recombinant smMLCK at 500 nM in presence of ATP by radiometric assay relative to control
[5] = biological target: Phosphorylase b kinase gamma catalytic chain, skeletal muscle/heart isoform (Homo sapiens) (UniProt Q16816); experiment: Inhibition of human recombinant PHKg1 at 15 nM related to control ULK1
[6] = biological target: T2, Serine/threonine-protein kinase ICK (Homo sapiens) (UniProt Q9UPZ9); experiment: Inhibition of human recombinant ICK at 15 nM related to control ULK1
T2 sequence (whole entry): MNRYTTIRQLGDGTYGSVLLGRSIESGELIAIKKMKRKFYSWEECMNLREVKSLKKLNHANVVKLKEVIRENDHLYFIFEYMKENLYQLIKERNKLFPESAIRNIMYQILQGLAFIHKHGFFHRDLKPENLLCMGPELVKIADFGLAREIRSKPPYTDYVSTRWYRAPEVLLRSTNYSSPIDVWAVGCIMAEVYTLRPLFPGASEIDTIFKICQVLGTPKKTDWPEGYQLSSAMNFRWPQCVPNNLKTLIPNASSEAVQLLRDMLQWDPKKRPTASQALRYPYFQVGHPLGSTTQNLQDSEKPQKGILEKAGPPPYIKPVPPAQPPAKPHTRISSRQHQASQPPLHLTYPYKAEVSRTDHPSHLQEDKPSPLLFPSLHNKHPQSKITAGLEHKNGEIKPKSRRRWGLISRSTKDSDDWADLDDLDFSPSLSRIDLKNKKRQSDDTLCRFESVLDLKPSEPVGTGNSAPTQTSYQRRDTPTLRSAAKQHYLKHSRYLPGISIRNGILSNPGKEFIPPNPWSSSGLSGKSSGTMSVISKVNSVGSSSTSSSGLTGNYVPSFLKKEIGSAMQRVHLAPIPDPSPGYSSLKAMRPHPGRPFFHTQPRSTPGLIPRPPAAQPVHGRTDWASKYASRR

[7] = biological target: Tyrosine-protein kinase ABL2 (Homo sapiens) (UniProt P42684); experiment: Inhibition of human recombinant ABL2 at 15 nM related to control ULK1
[8] = biological target: Cyclin-dependent kinase 1 (Homo sapiens) (UniProt P06493); experiment: Inhibition of human recombinant CDC2 at 15 nM in presence of ATP by radiometric assay relative to control
[9] = biological target: T3, Receptor-interacting serine/threonine-protein kinase 1 (Homo sapiens) (UniProt Q13546); experiment: Inhibition of human recombinant RIPK1 at 40 nM in presence of ATP by radiometric assay relative to control
T3 sequence (whole entry): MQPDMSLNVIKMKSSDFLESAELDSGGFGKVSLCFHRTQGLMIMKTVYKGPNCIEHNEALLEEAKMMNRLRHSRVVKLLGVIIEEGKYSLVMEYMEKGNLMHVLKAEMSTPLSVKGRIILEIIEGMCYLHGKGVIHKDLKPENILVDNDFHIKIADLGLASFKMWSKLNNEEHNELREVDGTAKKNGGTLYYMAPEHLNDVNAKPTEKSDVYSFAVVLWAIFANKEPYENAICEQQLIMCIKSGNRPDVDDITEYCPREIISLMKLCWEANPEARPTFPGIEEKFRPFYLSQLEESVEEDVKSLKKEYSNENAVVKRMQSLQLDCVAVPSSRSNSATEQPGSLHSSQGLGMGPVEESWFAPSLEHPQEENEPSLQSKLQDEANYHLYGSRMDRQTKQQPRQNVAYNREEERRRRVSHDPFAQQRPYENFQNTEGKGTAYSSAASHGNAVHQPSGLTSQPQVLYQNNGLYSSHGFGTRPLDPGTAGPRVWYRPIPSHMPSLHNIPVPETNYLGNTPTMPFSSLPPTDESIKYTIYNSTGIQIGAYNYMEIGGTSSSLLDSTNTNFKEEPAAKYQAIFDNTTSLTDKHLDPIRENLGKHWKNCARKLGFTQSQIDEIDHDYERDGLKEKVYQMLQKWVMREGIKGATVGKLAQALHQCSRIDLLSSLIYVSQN

[10] = biological target: Tyrosine-protein kinase FRK (Homo sapiens) (UniProt P42685); experiment: Inhibition of human recombinant FRK at 40 nM related to control ULK1
[11] = biological target: Ribosomal protein S6 kinase alpha-3 (Homo sapiens) (UniProt P51812); experiment: Inhibition of human recombinant RSK2 at 40 nM related to control ULK1

Tyrosine-protein kinase ABL2 (Homo sapiens), sequence (P42684 whole entry): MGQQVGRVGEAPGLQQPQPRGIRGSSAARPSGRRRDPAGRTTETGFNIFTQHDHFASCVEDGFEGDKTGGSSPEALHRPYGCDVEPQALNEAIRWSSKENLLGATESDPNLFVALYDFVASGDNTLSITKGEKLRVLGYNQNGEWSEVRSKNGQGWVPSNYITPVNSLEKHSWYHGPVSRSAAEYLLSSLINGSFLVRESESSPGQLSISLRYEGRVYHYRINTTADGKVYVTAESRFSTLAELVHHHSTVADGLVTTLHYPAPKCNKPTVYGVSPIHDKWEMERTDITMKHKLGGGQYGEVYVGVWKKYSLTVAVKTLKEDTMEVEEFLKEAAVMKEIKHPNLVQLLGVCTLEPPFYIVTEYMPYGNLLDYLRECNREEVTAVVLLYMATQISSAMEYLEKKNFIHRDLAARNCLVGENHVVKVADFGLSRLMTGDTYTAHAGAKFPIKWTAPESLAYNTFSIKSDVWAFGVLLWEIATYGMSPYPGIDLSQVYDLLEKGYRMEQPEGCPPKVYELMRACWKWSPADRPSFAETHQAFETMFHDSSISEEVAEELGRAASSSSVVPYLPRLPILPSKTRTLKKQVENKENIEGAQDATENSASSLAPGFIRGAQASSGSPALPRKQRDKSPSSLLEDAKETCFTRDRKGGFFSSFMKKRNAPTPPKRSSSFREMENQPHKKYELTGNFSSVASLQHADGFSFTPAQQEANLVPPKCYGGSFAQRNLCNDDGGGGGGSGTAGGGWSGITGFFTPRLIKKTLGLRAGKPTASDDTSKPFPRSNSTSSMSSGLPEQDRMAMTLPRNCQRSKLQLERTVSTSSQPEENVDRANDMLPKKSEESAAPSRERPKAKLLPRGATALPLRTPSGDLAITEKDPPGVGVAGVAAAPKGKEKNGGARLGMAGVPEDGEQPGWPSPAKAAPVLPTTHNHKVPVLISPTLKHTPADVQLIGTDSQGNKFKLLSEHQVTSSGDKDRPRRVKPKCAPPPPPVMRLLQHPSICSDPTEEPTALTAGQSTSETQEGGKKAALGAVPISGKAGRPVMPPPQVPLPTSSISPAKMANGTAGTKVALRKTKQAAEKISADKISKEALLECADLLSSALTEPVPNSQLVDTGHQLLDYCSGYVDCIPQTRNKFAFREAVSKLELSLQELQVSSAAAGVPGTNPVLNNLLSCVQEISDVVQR
Phosphorylase b kinase gamma catalytic chain, skeletal muscle/heart isoform (Homo sapiens), sequence (Q16816 whole entry, looked up, canonical isoform): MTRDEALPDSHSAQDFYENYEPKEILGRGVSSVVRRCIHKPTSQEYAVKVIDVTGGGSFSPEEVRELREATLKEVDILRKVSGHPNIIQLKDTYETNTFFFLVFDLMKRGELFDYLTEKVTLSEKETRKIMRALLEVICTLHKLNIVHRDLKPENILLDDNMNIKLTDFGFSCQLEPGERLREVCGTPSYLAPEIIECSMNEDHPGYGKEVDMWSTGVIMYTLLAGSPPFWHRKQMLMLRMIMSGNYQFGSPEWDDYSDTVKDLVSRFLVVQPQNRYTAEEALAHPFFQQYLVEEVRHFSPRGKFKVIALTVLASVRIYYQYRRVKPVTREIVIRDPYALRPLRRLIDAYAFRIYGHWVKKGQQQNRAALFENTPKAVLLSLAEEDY
Cyclin-dependent kinase 1 (Homo sapiens), sequence (P06493 whole entry, looked up): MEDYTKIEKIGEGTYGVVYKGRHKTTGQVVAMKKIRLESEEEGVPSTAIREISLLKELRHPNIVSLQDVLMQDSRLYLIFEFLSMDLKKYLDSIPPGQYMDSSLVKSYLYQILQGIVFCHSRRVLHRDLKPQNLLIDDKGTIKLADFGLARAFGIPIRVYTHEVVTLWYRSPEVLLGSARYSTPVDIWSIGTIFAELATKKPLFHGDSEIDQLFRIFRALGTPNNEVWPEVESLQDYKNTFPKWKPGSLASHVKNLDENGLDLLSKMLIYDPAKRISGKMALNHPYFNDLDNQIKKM
Ephrin type-A receptor 7 (Homo sapiens), sequence (Q15375 28-998 limits assumed): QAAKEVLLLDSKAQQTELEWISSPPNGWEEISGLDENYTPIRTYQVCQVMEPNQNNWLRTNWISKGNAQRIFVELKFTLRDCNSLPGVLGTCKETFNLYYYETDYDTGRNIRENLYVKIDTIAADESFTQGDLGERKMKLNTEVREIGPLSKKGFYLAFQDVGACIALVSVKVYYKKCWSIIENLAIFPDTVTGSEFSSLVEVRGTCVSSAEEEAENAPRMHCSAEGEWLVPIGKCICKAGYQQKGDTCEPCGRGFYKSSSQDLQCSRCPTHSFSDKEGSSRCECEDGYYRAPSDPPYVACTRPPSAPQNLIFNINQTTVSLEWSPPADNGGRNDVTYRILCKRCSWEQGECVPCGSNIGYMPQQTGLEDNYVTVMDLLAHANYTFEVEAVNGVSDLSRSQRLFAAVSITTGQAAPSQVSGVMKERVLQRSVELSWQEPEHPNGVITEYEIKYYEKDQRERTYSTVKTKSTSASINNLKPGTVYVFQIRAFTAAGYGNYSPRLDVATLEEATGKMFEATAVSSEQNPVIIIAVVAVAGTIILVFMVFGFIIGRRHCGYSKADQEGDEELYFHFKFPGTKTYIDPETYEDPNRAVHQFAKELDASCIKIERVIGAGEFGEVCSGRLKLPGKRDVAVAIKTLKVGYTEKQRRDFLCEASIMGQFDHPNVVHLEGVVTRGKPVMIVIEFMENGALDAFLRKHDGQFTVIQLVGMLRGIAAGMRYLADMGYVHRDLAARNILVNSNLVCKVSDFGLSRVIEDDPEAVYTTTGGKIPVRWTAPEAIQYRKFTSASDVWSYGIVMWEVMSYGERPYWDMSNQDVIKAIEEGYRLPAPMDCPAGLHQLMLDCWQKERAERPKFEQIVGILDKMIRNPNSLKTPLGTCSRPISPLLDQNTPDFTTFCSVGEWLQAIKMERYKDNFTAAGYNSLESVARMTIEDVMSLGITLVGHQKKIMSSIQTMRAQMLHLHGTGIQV
Myosin light chain kinase, smooth muscle (Homo sapiens), sequence (Q15746 whole entry, canonical isoform): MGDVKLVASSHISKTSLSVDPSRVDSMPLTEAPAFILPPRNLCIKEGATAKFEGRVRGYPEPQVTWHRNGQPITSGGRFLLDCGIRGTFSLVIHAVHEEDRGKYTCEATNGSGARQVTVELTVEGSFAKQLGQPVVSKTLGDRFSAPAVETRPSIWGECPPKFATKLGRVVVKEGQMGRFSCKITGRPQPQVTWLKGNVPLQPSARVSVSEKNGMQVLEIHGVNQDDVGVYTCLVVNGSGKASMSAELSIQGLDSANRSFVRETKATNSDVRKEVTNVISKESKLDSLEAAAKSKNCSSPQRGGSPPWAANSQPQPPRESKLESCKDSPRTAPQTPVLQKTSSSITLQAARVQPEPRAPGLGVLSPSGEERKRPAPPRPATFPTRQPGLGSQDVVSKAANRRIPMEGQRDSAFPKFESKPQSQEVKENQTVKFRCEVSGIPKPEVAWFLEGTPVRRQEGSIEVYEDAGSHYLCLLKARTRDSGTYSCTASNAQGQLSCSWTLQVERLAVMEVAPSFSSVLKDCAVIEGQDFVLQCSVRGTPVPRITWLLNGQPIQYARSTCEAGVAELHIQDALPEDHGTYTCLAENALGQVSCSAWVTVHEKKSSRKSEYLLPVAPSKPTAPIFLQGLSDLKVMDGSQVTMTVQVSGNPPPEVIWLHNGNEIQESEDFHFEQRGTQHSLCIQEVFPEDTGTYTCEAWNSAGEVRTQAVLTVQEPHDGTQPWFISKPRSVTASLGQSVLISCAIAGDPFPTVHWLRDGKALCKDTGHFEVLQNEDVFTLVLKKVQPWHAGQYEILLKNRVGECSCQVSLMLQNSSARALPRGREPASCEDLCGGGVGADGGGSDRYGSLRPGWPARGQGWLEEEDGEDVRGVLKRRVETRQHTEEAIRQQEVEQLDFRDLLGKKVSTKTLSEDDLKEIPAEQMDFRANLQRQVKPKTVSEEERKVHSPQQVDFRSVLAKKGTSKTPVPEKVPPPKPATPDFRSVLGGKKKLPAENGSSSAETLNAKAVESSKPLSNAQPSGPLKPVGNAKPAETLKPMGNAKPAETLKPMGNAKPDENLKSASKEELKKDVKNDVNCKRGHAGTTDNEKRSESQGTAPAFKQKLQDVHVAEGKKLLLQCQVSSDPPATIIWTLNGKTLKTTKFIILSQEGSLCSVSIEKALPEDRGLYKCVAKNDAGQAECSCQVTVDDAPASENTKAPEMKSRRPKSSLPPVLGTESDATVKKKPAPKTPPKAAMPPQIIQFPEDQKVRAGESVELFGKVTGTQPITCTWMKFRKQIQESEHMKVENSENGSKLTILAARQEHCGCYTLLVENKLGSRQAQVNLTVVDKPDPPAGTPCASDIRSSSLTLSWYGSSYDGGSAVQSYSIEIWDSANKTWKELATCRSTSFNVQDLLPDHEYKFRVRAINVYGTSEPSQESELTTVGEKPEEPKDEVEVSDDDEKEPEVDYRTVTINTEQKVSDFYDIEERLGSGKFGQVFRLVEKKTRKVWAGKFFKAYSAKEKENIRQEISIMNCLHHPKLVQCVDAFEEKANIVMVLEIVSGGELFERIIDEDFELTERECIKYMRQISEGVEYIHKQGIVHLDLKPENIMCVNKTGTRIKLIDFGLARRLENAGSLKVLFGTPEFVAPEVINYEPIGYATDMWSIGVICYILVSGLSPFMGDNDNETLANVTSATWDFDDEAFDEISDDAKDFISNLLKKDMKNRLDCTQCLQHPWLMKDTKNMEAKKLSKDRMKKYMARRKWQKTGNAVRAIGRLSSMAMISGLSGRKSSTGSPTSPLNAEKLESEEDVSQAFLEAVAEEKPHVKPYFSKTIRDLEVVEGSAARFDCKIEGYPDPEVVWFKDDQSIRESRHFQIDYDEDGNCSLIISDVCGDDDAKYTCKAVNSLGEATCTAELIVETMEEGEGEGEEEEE

inhibition [1]: 0%
fold change (FC) [2]: 0
fold change (FC) [3]: 0
inhibition [4]: 5%
SMILES: CNC(=O)c1ccccc1Oc1nc(Nc2cc(OC)c(OC)c(OC)c2)ncc1Br

fold change (FC) [5]: 0.58
fold change (FC) [6]: 0
fold change (FC) [7]: 0.48
inhibition [8]: 24%
SMILES: CC(C)[C@H](NC(=O)c1cc(-c2cnn3cc(-c4ccc(OCCN5CCCCC5)cc4)cnc23)cs1)C(F)(F)F

inhibition [9]: 2%
fold change (FC) [10]: 0
fold change (FC) [11]: 0
SMILES: O=C(N[C@@H](C1CC1)C(F)(F)F)c1cc(-c2cnn3cc(-c4ccc(F)cc4)cnc23)cs1
